Data as given in patent publication US6858591B2, “Antibiotic AA 896 analogs” (Wyeth Holdings Corporation, priority 2001, dated 2005).
≈ marks a conversion by molar mass, not a printed value. Like-named read-outs stand apart in the source and are kept apart here.

Columns and labels:
Assay in all cases: In vitro MIC, broth dilution
Assay type in all cases: cell-based
[1] = tested on: P. aeruginosa GC 4532; conditions: Pseudomonas aeruginosa, GC4532
[2] = tested on: K. pneumoniae GC 4534; conditions: Klebsiella pneumoniae, GC4534
[3] = tested on: E. coli GC 2203; conditions: Escherichia coli, GC2203
[4] = tested on: CNS GC 4538
Procedure: (§1) The minimum inhibitory concentration (MIC), the lowest concentration of the antibiotic which inhibits growth of the test organism, is determined by the broth dilution method using Muller-Hinton II […] (Baltimore Biological Laboratories) following the recommendations of National Committee for Clinical Laboratory Standards. [Reference for the Methods for dilution antimicrobial susceptibility tests for bacteria that grow aerobically: National Committee for Clinical Laboratory Standards, 1997. Approved standard M7-A National Committee for Clinical Laboratory Standards, Wayne, Pa.] An inoculum level of 5×10^5 CFU/ml, and a range of antibiotic concentrations (64-0.06 μg/ml) is used. The MIC is determined after the microtiter plates are incubated for 18 hours at 35° C. in an ambient air incubator. The test organisms comprise a spectrum of gram-positive bacteria including Staphylococcus sp., Streptococcus sp. and Enterococcus sp. These organisms include recent clinical isolates that are resistant to methicillin, penicillin and vancomycin.

[5] = tested on: E. faecalis GC 842; conditions: Enterococcus faecalis, GC842
Procedure: as §1

[6] = tested on: S. aureus GC 4536; conditions: Staphylococcus aureus, GC4536
Procedure: as §1

[7] = tested on: E. faecalis GC 2242; conditions: Enterococcus faecalis, GC2242
Procedure: as §1

[8] = tested on: S. aureus GC 1131; conditions: Staphylococcus aureus, GC1131
Procedure: as §1

[9] = tested on: CNS GC 4537
Procedure: as §1

[10] = tested on: S. aureus GC 2216; conditions: Staphylococcus aureus, GC2216
Procedure: as §1

[11] = tested on: CNS GC 4547
Procedure: as §1

[12] = tested on: E. faecalis GC 4555; conditions: Enterococcus faecalis, GC4555
Procedure: as §1

[13] = tested on: E. coli GC 4559; conditions: Escherichia coli, GC4559
[14] = tested on: P. aeruginosa GC 2214; conditions: Pseudomonas aeruginosa, GC2214
[15] = tested on: E. coli GC 4560; conditions: Escherichia coli, GC4560
[16] = tested on: C. albicans GC 3066; conditions: Candida albicans, GC3066
[17] = tested on: S. marcescens GC 4077; conditions: Serratia marcescens, GC4077
[18] = tested on: E. cloacae GC 3783; conditions: Enterobacter cloacae, GC3783
[19] = tested on: E. coli GC 3226; conditions: Escherichia coli, GC3226
[20] = tested on: M. morganii GC 4531; conditions: Morganella morganii, GC4531
[21] = P. aeruginosa GC 4532, read-out: MIC
[22] = K. pneumoniae GC 4534, read-out: MIC
[23] = E. faecalis GC 842, read-out: MIC
[24] = S. aureus GC 4536, read-out: MIC
[25] = E. faecalis GC 2242, read-out: MIC
[26] = S. aureus GC 1131, read-out: MIC
[27] = S. aureus GC 2216, read-out: MIC
[28] = E. faecalis GC 4555, read-out: MIC
[29] = P. aeruginosa GC 2214, read-out: MIC
[30] = C. albicans GC 3066, read-out: MIC
[31] = S. marcescens GC 4077, read-out: MIC
[32] = E. cloacae GC 3783, read-out: MIC
[33] = M. morganii GC 4531, read-out: MIC

## COc1ccc(Cn2c(=O)ccn([C@@H]3OC([C@H](O)[C@H](NCCCNC(=O)[C@@H](N)CC(C)C)C(=O)OC(C)(C)C)[C@@H](O[Si](C)(C)C(C)(C)C)[C@H]3O[Si](C)(C)C(C)(C)C)c2=O)cc1 (stereo partly drawn) [Example 5, tert-Butyl (2S,3R)-2-[(3-{[(2S)-2-amino-4-methylpentanoyl]amino}propyl)amino]-3-[(3R,4R,5R)-3,4-bis{[tert-butyl(dimethyl)silyl]oxy}-5-(3-(4-methoxybenzyl)-2,4-dioxo-3,4-dihydro-1(2H)-pyrimidinyl)tetrahydro-2-furanyl]-3-hydroxypropanoate]
[1]; [21]
  MIC: > 128 µg/mL
[2]; [22]
  MIC: > 128 µg/mL
[3]; E. coli GC 2203, read-out: MIC
  MIC: > 128 µg/mL
[4]; CNS GC 4538, read-out: MIC
  MIC: 8 µg/mL (≈ 8.97 µM)
[5]; [23]
  MIC: 16 µg/mL (≈ 17.9 µM)
[6]; [24]
  MIC: 16 µg/mL (≈ 17.9 µM)
[7]; [25]
  MIC: 4 µg/mL (≈ 4.48 µM)
[8]; [26]
  MIC: 32 µg/mL (≈ 35.9 µM)
[9]; CNS GC 4537, read-out: MIC
  MIC: 4 µg/mL (≈ 4.48 µM)
[10]; [27]
  MIC: 8 µg/mL (≈ 8.97 µM)
[11]; CNS GC 4547, read-out: MIC
  MIC: 64 µg/mL (≈ 71.7 µM)
[12]; [28]
  MIC: 8 µg/mL (≈ 8.97 µM)
[13]; E. coli GC 4559, read-out: MIC
  MIC: > 128 µg/mL
[14]; [29]
  MIC: > 128 µg/mL
[15]; E. coli GC 4560, read-out: MIC
  MIC: > 128 µg/mL
[16]; [30]
  MIC: > 128 µg/mL
[17]; [31]
  MIC: > 128 µg/mL
[18]; [32]
  MIC: > 128 µg/mL
[19]; E. coli GC 3226, read-out: MIC
  MIC: > 128 µg/mL
[20]; [33]
  MIC: > 128 µg/mL

## CC(C)C[C@H](NC(=O)OCc1ccccc1)C(=O)NCCCN[C@H](C(=O)OC(C)(C)C)[C@@H](O)C1O[C@@H](n2ccc(=O)[nH]c2=O)[C@H](O[Si](C)(C)C(C)(C)C)[C@@H]1O[Si](C)(C)C(C)(C)C (stereo partly drawn) [Example 6, tert-Butyl (5S,12S)-12-[(R)-[(3R,4R,5R)-3,4-bis{[tert-butyl(dimethyl)silyl]oxy}-5-(2,4-dioxo-3,4-dihydro-1(2H)-pyrimidinyl)tetrahydro-2-furanyl](hydroxy)methyl]-5-isobutyl-3,6-dioxo-1-phenyl-2-oxa-4,7,11-triazatridecan-13-oate]
[1]; [21]
  MIC: 128 µg/mL (≈ 141 µM)
[2]; [22]
  MIC: > 128 µg/mL
[3]; E. coli GC 2203, read-out: MIC
  MIC: > 128 µg/mL
[4]; CNS GC 4538, read-out: MIC
  MIC: > 128 µg/mL
[5]; [23]
  MIC: > 128 µg/mL
[6]; [24]
  MIC: > 128 µg/mL
[7]; [25]
  MIC: 64 µg/mL (≈ 70.6 µM)
[8]; [26]
  MIC: > 128 µg/mL
[9]; CNS GC 4537, read-out: MIC
  MIC: > 128 µg/mL
[10]; [27]
  MIC: > 128 µg/mL
[11]; CNS GC 4547, read-out: MIC
  MIC: > 128 µg/mL
[12]; [28]
  MIC: > 128 µg/mL
[13]; E. coli GC 4559, read-out: MIC
  MIC: > 128 µg/mL
[14]; [29]
  MIC: 128 µg/mL (≈ 141 µM)
[15]; E. coli GC 4560, read-out: MIC
  MIC: 128 µg/mL (≈ 141 µM)
[16]; [30]
  MIC: > 128 µg/mL
[17]; [31]
  MIC: > 128 µg/mL
[18]; [32]
  MIC: > 128 µg/mL
[19]; E. coli GC 3226, read-out: MIC
  MIC: > 128 µg/mL
[20]; [33]
  MIC: 128 µg/mL (≈ 141 µM)

## CC(C)C[C@H](N)C(=O)NCCCN[C@H](C(=O)OC(C)(C)C)[C@@H](O)C1O[C@@H](n2ccc(=O)[nH]c2=O)[C@H](O[Si](C)(C)C(C)(C)C)[C@@H]1O[Si](C)(C)C(C)(C)C (stereo partly drawn) [Example 7, tert-Butyl (2S,3R)-2-[(3-{[(2S)-2-amino-4-methylpentanoyl]amino}propyl)amino]-3-[(3R,4R,5R)-3,4-bis{[tert-butyl(dimethyl)silyl]oxy}-5-(2,4-dioxo-3,4-dihydro-1(2H)-pyrimidinyl)tetrahydro-2-furanyl]-3-hydroxypropanoate]
[1]; [21]
  MIC: 128 µg/mL (≈ 166 µM)
[2]; [22]
  MIC: 128 µg/mL (≈ 166 µM)
[3]; E. coli GC 2203, read-out: MIC
  MIC: > 128 µg/mL
[4]; CNS GC 4538, read-out: MIC
  MIC: 2 µg/mL (≈ 2.59 µM)
[5]; [23]
  MIC: 2 µg/mL (≈ 2.59 µM)
[6]; [24]
  MIC: 1 µg/mL (≈ 1.3 µM)
[7]; [25]
  MIC: 2 µg/mL (≈ 2.59 µM)
[8]; [26]
  MIC: 1 µg/mL (≈ 1.3 µM)
[9]; CNS GC 4537, read-out: MIC
  MIC: 1 µg/mL (≈ 1.3 µM)
[10]; [27]
  MIC: 2 µg/mL (≈ 2.59 µM)
[11]; CNS GC 4547, read-out: MIC
  MIC: 2 µg/mL (≈ 2.59 µM)
[12]; [28]
  MIC: 2 µg/mL (≈ 2.59 µM)
[13]; E. coli GC 4559, read-out: MIC
  MIC: > 128 µg/mL
[14]; [29]
  MIC: 128 µg/mL (≈ 166 µM)
[15]; E. coli GC 4560, read-out: MIC
  MIC: 32 µg/mL (≈ 41.4 µM)
[16]; [30]
  MIC: 32 µg/mL (≈ 41.4 µM)
[17]; [31]
  MIC: 128 µg/mL (≈ 166 µM)
[18]; [32]
  MIC: 128 µg/mL (≈ 166 µM)
[19]; E. coli GC 3226, read-out: MIC
  MIC: > 128 µg/mL
[20]; [33]
  MIC: 128 µg/mL (≈ 166 µM)

## COc1ccc(Cn2c(=O)ccn([C@@H]3OC([C@@H](O)[C@H](NCCCNC(=O)[C@@H](NC(=O)OCc4ccccc4)[C@H](C)O)C(=O)OC(C)(C)C)[C@@H](O[Si](C)(C)C(C)(C)C)[C@H]3O[Si](C)(C)C(C)(C)C)c2=O)cc1 (stereo partly drawn) [Example 8, tert-Butyl (5S,12S)-12-[(S)-[(3R,4R,5R)-3,4-bis{[tert-butyl(dimethyl)silyl]oxy}-5-(3-(4-methoxybenzyl)-2,4-dioxo-3,4-dihydro-1(2H)-pyrimidinyl)tetrahydro-2-furanyl](hydroxy)methyl]-5-[(1S)-1-hydroxyethyl]-3,6-dioxo-1-phenyl-2-oxa-4,7,11-triazatridecan-13-oate]
[1]
  MIC: 64 µg/mL (≈ 63.1 µM)
[2]
  MIC: 64 µg/mL (≈ 63.1 µM)
[3]
  MIC: 64 µg/mL (≈ 63.1 µM)
[4]
  MIC: 128 µg/mL (≈ 126 µM)
[5]
  MIC: 64 µg/mL (≈ 63.1 µM)
[6]
  MIC: 128 µg/mL (≈ 126 µM)
[7]
  MIC: 64 µg/mL (≈ 63.1 µM)
[8]
  MIC: 128 µg/mL (≈ 126 µM)
[9]
  MIC: 128 µg/mL (≈ 126 µM)
[10]
  MIC: 128 µg/mL (≈ 126 µM)
[11]
  MIC: 128 µg/mL (≈ 126 µM)
[12]
  MIC: 64 µg/mL (≈ 63.1 µM)
[13]
  MIC: > 128 µg/mL
[14]
  MIC: 64 µg/mL (≈ 63.1 µM)
[15]
  MIC: 64 µg/mL (≈ 63.1 µM)
[16]
  MIC: 32 µg/mL (≈ 31.5 µM)
[17]
  MIC: 64 µg/mL (≈ 63.1 µM)
[18]
  MIC: 64 µg/mL (≈ 63.1 µM)
[19]
  MIC: > 128 µg/mL
[20]
  MIC: 64 µg/mL (≈ 63.1 µM)

## COc1ccc(Cn2c(=O)ccn([C@@H]3OC([C@@H](O)[C@H](NCCCNC(=O)[C@@H](N)[C@H](C)O)C(=O)OC(C)(C)C)[C@@H](O[Si](C)(C)C(C)(C)C)[C@H]3O[Si](C)(C)C(C)(C)C)c2=O)cc1 (stereo partly drawn) [Example 9, tert-Butyl (2S,3S)-2-[(3-{[(2S,3S)-2-amino-3-hydroxybutanoyl]amino}propyl)amino]-3-[(3R,4R,5R)-3,4-bis{[tert-butyl(dimethyl)silyl]oxy}-5-(3-(4-methoxybenzyl)-2,4-dioxo-3,4-dihydro-1(2H)-pyrimidinyl)tetrahydro-2-furanyl]-3-hydroxypropanoate]
[1]; [21]
  MIC: 128 µg/mL (≈ 145 µM)
[2]; [22]
  MIC: > 128 µg/mL
[3]; E. coli GC 2203, read-out: MIC
  MIC: > 128 µg/mL
[4]; CNS GC 4538, read-out: MIC
  MIC: 128 µg/mL (≈ 145 µM)
[5]; [23]
  MIC: > 128 µg/mL
[6]; [24]
  MIC: 128 µg/mL (≈ 145 µM)
[7]; [25]
  MIC: 128 µg/mL (≈ 145 µM)
[8]; [26]
  MIC: 128 µg/mL (≈ 145 µM)
[9]; CNS GC 4537, read-out: MIC
  MIC: 128 µg/mL (≈ 145 µM)
[10]; [27]
  MIC: 128 µg/mL (≈ 145 µM)
[11]; CNS GC 4547, read-out: MIC
  MIC: 8 µg/mL (≈ 9.09 µM)
[12]; [28]
  MIC: 128 µg/mL (≈ 145 µM)
[13]; E. coli GC 4559, read-out: MIC
  MIC: > 128 µg/mL
[14]; [29]
  MIC: 128 µg/mL (≈ 145 µM)
[15]; E. coli GC 4560, read-out: MIC
  MIC: 128 µg/mL (≈ 145 µM)
[16]; [30]
  MIC: 128 µg/mL (≈ 145 µM)
[17]; [31]
  MIC: > 128 µg/mL
[18]; [32]
  MIC: > 128 µg/mL
[19]; E. coli GC 3226, read-out: MIC
  MIC: > 128 µg/mL
[20]; [33]
  MIC: > 128 µg/mL
